The values that follow come from BindingDB's records for doi:10.1016/S1074-5521(99)80048-9 (University of California Berkeley, 1999).

A word on the IC50: it is the midpoint of a concentration-inhibition curve. Read a high IC50 as weaker potency.

Chain of Cyclin-dependent kinase 1 (P06493 whole entry): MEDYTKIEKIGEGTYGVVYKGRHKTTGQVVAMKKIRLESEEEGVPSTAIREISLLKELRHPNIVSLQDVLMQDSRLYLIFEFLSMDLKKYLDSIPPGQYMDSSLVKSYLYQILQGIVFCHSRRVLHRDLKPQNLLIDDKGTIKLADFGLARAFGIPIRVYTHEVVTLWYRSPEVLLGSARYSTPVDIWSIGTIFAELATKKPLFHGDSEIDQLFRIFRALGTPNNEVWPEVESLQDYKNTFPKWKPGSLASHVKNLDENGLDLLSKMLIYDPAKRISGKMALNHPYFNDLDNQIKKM

The experiment concerns the target Cyclin-dependent kinase 1 (Homo sapiens, UniProt P06493). The experiment in a line: Inhibition Assay. The source says:
Inhibition assay using CDK1/cyclin B.
The molecule `CC(C)N1CNc2c(NCc3cccc(I)c3)nc(N3CCCCC3CCO)nc21` (configuration not stated) [2-(2-hydroxyethylpiperidyl)-9-isopropylpurine core C6-substituent, 113] gave an IC50 of 6000 nM.
Then `CC(C)N1CNc2c(Nc3ccc(Cl)cc3)nc(N3CCCCC3CCO)nc21` (configuration not stated) [2-(2-hydroxyethylpiperidyl)-9-isopropylpurine core C6-substituent, 359], with 790 nM; and `COc1ccc(CNc2nc(N(CCO)CCCO)nc3c2NCN3C(C)C)cc1` [6-(4-methoxybenzylamino) core C2-substituent, 211], with 250 nM.
The molecule `CC[C@H](CO)Nc1nc(Nc2cccc(Cl)c2)c2c(n1)N(C(C)C)CN2` [6-(3-chloroanilino)-9-isopropylpurine core C2-substituent, 307] gave a 50% inhibitory concentration (IC50) of 300 nM.
`COc1ccc(CNc2nc(NCC(O)CN)nc3c2NCN3C(C)C)cc1` (configuration not stated) [6-(4-methoxybenzylamino) core C2-substituent, 41] had a concentration for half-maximal inhibition (IC50) of 1600 nM.
The value for `CC(C)N1CNc2c(NCCC(c3ccccc3)c3ccccc3)nc(N3CCCCC3CCO)nc21` (configuration not stated) was 9000 nM.
In turn, `CC(C)N1CNc2c(Nc3ccccc3)nc(N3CCCCC3CCO)nc21` (configuration not stated) [2-(2-hydroxyethylpiperidyl)-9-isopropylpurine core C6-substituent, 220] gave a concentration for half-maximal inhibition (IC50) of 130 nM.
Molecule `CC(O)CN(CC(C)O)c1nc(Nc2cccc(Cl)c2)c2c(n1)N(C(C)C)CN2` (configuration not stated) [6-(3-chloroanilino)-9-isopropylpurine core C2-substituent, 305] yielded an IC50 of 350 nM.
The value for `CCN(CCO)c1nc(NCc2ccc(OC)cc2)c2c(n1)N(C(C)C)CN2` [6-(4-methoxybenzylamino) core C2-substituent, 13] was 1200 nM.
Then `CCC(C)[C@@H](CO)Nc1nc(Nc2cccc(Cl)c2)c2c(n1)N(C(C)C)CN2` (some centres not stated) [6-(3-chloroanilino)-9-isopropylpurine core C2-substituent, 62], with 500 nM; and `COc1ccc(CNc2nc(NC3(CO)CCCC3)nc3c2NCN3C(C)C)cc1` [6-(4-methoxybenzylamino) core C2-substituent, 314], with 450 nM; and `COc1ccc(CNc2nc(NCCCO)nc3c2NCN3C(C)C)cc1` [6-(4-methoxybenzylamino) core C2-substituent, 209], with 1200 nM.
The value for `CC(C)[C@H](CO)Nc1nc(Nc2ccc(Br)cc2)c2c(n1)N(C(C)C)CN2` [2-(1 R-isopropyl-2-hydroxyethylamino)-9-isopropylpurine core C6-substituent, 73] was 40 nM; that for `CC(C)[C@H](CO)Nc1nc(Nc2ccc(Cl)c(C(=O)O)c2)c2c(n1)N(C(C)C)CN2` [2-(1 R-isopropyl-2-hydroxyethylamino)-9-isopropylpurine core C6-substituent, 96] was 30 nM; that for `CC(C)[C@H](CO)Nc1nc(Nc2ccc(Cl)cc2)c2c(n1)N(C(C)C)CN2` [2-(1 R-isopropyl-2-hydroxyethylamino)-9-isopropylpurine core C6-substituent, 356] was 80 nM.
On to `COc1ccc(CNc2nc(N3CCC(O)CC3)nc3c2NCN3C(C)C)cc1` [6-(4-methoxybenzylamino) core C2-substituent, 27], for which the midpoint of inhibition, the IC50, lay at 6500 nM. This IC50 lies about 81-fold higher than the previous one.
`COc1ccc(CNc2nc(N3CCCCC3CCO)nc3c2NCN3C(C)C)cc1` (configuration not stated) [6-(4-methoxybenzylamino) core C2-substituent, 10] gave a 50% inhibitory concentration (IC50) of 210 nM.
For the molecule `CC(C)N1CNc2c(Nc3cccc(Cl)c3)nc(N[C@H](CO)Cc3ccccc3)nc21` [6-(3-chloroanilino)-9-isopropylpurine core C2-substituent, 70], inhibition was half-maximal at 500 nM (IC50).
On to `COc1ccc(CNc2nc(N3CCN(C)CC3)nc3c2NCN3C(C)C)cc1` [6-(4-methoxybenzylamino) core C2-substituent, 12], for which the IC50 worked out at 10800 nM.
The value for `COc1ccc(CNc2nc(NCCO)nc3c2NCN3C(C)C)cc1` [6-(4-methoxybenzylamino) core C2-substituent, 118] was 700 nM; that for `COc1ccc(CNc2nc(N3CCCCCC3)nc3c2NCN3C(C)C)cc1` [6-(4-methoxybenzylamino) core C2-substituent, 38] was 4000 nM.
The molecule `CC(C)C[C@H](CO)Nc1nc(Nc2cccc(Cl)c2)c2c(n1)N(C(C)C)CN2` [6-(3-chloroanilino)-9-isopropylpurine core C2-substituent, 308] showed an IC50 of 530 nM.
The value for `COc1ccc(CNc2nc(N(CC(C)O)CC(C)O)nc3c2NCN3C(C)C)cc1` (configuration not stated) [6-(4-methoxybenzylamino) core C2-substituent, 16] was 240 nM.
Consider `COc1ccccc1Nc1nc(NCCO)nc2c1NCN2C(C)C` [2-(2-hydroxyethylamino)-9-isopropylpurine core C6-substituents, 46], for which the half-inhibitory concentration (IC50) came out at 9000 nM. Against the preceding molecule, the IC50 is about 38-fold higher.
The value for `COc1ccc(CNc2nc(N3CCN(CCO)CC3)nc3c2NCN3C(C)C)cc1` [6-(4-methoxybenzylamino) core C2-substituent, 11] was 7000 nM; that for `COc1ccc(CNc2nc(NCC(O)c3ccccc3)nc3c2NCN3C(C)C)cc1` (configuration not stated) [6-(4-methoxybenzylamino) core C2-substituent, 50] was 2800 nM; that for `CC(C)N1CNc2c(Nc3cccc(Cl)c3)nc(N[C@H](CO)C(C)(C)C)nc21` [6-(3-chloroanilino)-9-isopropylpurine core C2-substituent, 61] was 2300 nM.
Then `CC(C)[C@H](CO)Nc1nc(Nc2ccc(O)c(C(=O)O)c2)c2c(n1)N(C(C)C)CN2` [2-(1 R-isopropyl-2-hydroxyethylamino)-9-isopropylpurine core C6-substituent, 94], with 100 nM; and `COc1ccc(CNc2nc(NCC(O)CO)nc3c2NCN3C(C)C)cc1` (configuration not stated) [6-(4-methoxybenzylamino) core C2-substituent, 15], with 1300 nM; and `COc1ccc(CNc2nc(N[C@@H](CO)CC(C)C)nc3c2NCN3C(C)C)cc1` [6-(4-methoxybenzylamino) core C2-substituent, 36], with 100 nM.
`CC(C)N1CNc2c(NCc3ccc4ccccc4c3)nc(N3CCCCC3CCO)nc21` (configuration not stated) [2-(2-hydroxyethylpiperidyl)-9-isopropylpurine core C6-substituent, 226] gave an IC50 of 1200 nM.
The value for `COc1ccc(CNc2nc(N(CCO)Cc3ccccc3)nc3c2NCN3C(C)C)cc1` [6-(4-methoxybenzylamino) core C2-substituent, 49] was 2800 nM.
The value for `CC(C)N1CNc2c(NCCNc3ccccc3)nc(N3CCCCC3CCO)nc21` (configuration not stated) [2-(2-hydroxyethylpiperidyl)-9-isopropylpurine core C6-substituent, 224] was 1500 nM.
The value for `CC(C)N1CNc2c(Nc3cccc(Cl)c3)nc(N(CCO)Cc3ccccc3)nc21` [6-(3-chloroanilino)-9-isopropylpurine core C2-substituent, 302] was 5000 nM.
In turn, `COc1ccc(CNc2nc(N(C)CC(O)c3ccccc3)nc3c2NCN3C(C)C)cc1` (configuration not stated) [6-(4-methoxybenzylamino) core C2-substituent, 37] yielded a half-inhibitory concentration (IC50) of 1000 nM.
Then `CCCCNc1nc(N2CCCCC2CCO)nc2c1NCN2C(C)C` (configuration not stated) [2-(2-hydroxyethylpiperidyl)-9-isopropylpurine core C6-substituent, 219], with 1300 nM; and `CC(C)N1CNc2c(Nc3cccc(Cl)c3)nc(N[C@H]3Cc4ccccc4[C@H]3O)nc21` [6-(3-chloroanilino)-9-isopropylpurine core C2-substituent, 69], with 5000 nM; and `CC(C)N1CNc2c(Nc3ccc4ccccc4c3)nc(NCCO)nc21` [2-(2-hydroxyethylamino)-9-isopropylpurine core C6-substituents, 47], with 430 nM.
For `CC(C)[C@H](CO)Nc1nc(Nc2ccccc2)c2c(n1)N(C(C)C)CN2` [2-(1 R-isopropyl-2-hydroxyethylamino)-9-isopropylpurine core C6-substituent, 78], it took 240 nM to reach half-maximal inhibition (IC50).
Then `COc1ccc(CNc2nc(N(CCN(C)C)Cc3ccccc3)nc3c2NCN3C(C)C)cc1` [6-(4-methoxybenzylamino) core C2-substituent, 40], with 5000 nM; and `CC(C)N1CNc2c(Nc3cccc(Cl)c3)nc(N[C@H](CO)c3ccccc3)nc21` [6-(3-chloroanilino)-9-isopropylpurine core C2-substituent, 59], with 800 nM; and `CC(C)N1CNc2c(NCc3ccccc3)nc(N3CCCCC3CCO)nc21` (configuration not stated) [2-(2-hydroxyethylpiperidyl)-9-isopropylpurine core C6-substituent, 212], with 160 nM.
`CC(C)[C@H](CO)Nc1nc(NCc2cccc(I)c2)c2c(n1)N(C(C)C)CN2` [2-(1 R-isopropyl-2-hydroxyethylamino)-9-isopropylpurine core C6-substituent, 112] displayed an IC50 of 170 nM.
Then `CC(C)N1CNc2c(N(CCN(C)C)Cc3ccccc3)nc(N3CCCCC3CCO)nc21` (configuration not stated) [2-(2-hydroxyethylpiperidyl)-9-isopropylpurine core C6-substituent, 227], with > 10000 nM.
Then `CC(C)N1CNc2c(NCc3cccc(C(F)(F)F)c3)nc(N3CCCCC3CCO)nc21` (configuration not stated) [2-(2-hydroxyethylpiperidyl)-9-isopropylpurine core C6-substituent, 222], with 3000 nM.
Then `Cc1ccc(CN(c2nc(Nc3cccc(Cl)c3)c3c(n2)N(C(C)C)CN3)[C@@H](O)C(C)C)cc1` [2-((1 R-isopropyl)-2-hydroxyethylamino)-6-(3-chloroanilino)-9-isopropylpurine core C2-substituent, 317], with > 10000 nM; and `CC(C)N1CNc2c(Nc3cccc(Cl)c3)nc(NCCO)nc21` [2-(2-hydroxyethylamino)-9-isopropylpurine core C6-substituents, 52], with 220 nM.
